System: c-myc in 22RV-1 cells
Test: Human c-myc ELISA assay
Assay type: cell-based
Conditions: Homo sapiens; for Emax: 22Rv1, 18 h, read-out: Degradation of BRD4: Maximum inhibition (%) c-Myc ELISA in 22RV1 cells; for DC50: 22Rv1, read-out: Degradation of BRD4: DC50 (uM) c-Myc ELISA in 22RV1 cells
In short: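 c-myc levels measured by ELISA in RIPA lysates of 22RV-1 cells, calibrated with a 333-0 pg/ml standard curve. Lysates came from cells exposed for 18 h to an 8-point, 1:3 dose series starting at 300 nM or 1 μM final in 0.1% DMSO. Suppression potency given as DC50.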

DC50 [µM] | SMILES | Emax [%]
> 1 | Cc1ncoc1-c1ccc(CNC(=O)[C@@H]2C[C@@H](O)CN2C(=O)[C@@H](C(C)C)n2cc(-c3ccnc(O[C@H]4C[C@@H](NC(=O)C[C@@H]5N=C(c6ccc(Cl)cc6)c6c(sc(C)c6C)-n6c(C)nnc65)C4)c3)cn2)cc1 [Example 294] | 43.4
0.01 to 0.1 | Cc1ncsc1-c1ccc([C@H](C)NC(=O)[C@@H]2C[C@@H](O)CN2C(=O)[C@@H](NC(=O)Cc2ccc(O[C@H]3C[C@H](NC(=O)C[C@@H]4N=C(c5ccc(Cl)cc5)c5c(sc(C)c5C)-n5c(C)nnc54)C3)cc2)C(C)C)cc1 [Example 280] | 95.4
< 0.01 | Cc1ncsc1-c1ccc(CNC(=O)[C@@H]2C[C@@H](O)CN2C(=O)[C@@H](NC(=O)COCCCCOc2cccc(NC(=O)C[C@@H]3N=C(c4ccc(Cl)cc4)c4c(sc(C)c4C)-n4c(C)nnc43)c2)C(C)(C)C)cc1 [Example 126] | 99
0.01 to 0.1 | Cc1ncsc1-c1ccc([C@H](C)NC(=O)[C@@H]2C[C@@H](O)CN2C(=O)[C@@H](NC(=O)COc2ccnc(O[C@H]3C[C@@H](NC(=O)C[C@@H]4N=C(c5ccc(Cl)cc5)c5c(sc(C)c5C)-n5c(C)nnc54)C3)c2)C(C)(C)C)cc1 [Example 189] | 95.9
> 1 | Cc1sc2c(c1C)C(c1ccc(Cl)cc1)=N[C@@H](CC(=O)N[C@H]1C[C@@H](Oc3cccc(-c4cnn([C@H](C(=O)N5C[C@H](O)C[C@H]5C(=O)N[C@@H](C)c5ccc(-c6nccn6C)cc5)C(C)C)c4)c3)C1)c1nnc(C)n1-2 [Example 291] | 22.2
< 0.01 | Cc1ncsc1-c1ccc([C@H](C)NC(=O)[C@@H]2C[C@@H](O)CN2C(=O)[C@@H](NC(=O)CN2CCC(C(=O)N3CCN(C(=O)C[C@@H]4N=C(c5ccc(Cl)cc5)c5c(sc(C)c5C)-n5c(C)nnc54)CC3)CC2)C(C)(C)C)cc1 [Example 334] | 97
> 1 | Cc1ncsc1-c1ccc([C@H](C)NC(=O)[C@@H]2C[C@@H](O)CN2C(=O)[C@@H](C(C)C)n2cc(-c3cc(F)cc(O[C@H]4C[C@H](NC(=O)C[C@@H]5N=C(c6ccc(Cl)cc6)c6c(sc(C)c6C)-n6c(C)nnc65)C4)c3)cn2)cc1 [Example 253] | 33.4
> 1 | Cc1sc2c(c1C)C(c1ccc(Cl)cc1)=N[C@@H](CC(=O)N[C@H]1C[C@H](Oc3ccc(CC(=O)N[C@H](C(=O)N4C[C@H](O)C[C@H]4C(=O)N[C@@H](C)c4ccc(-c5cnnn5C)cc4)C(C)(C)C)cc3)C1)c1nnc(C)n1-2 [Example 250] | 16.1
0.1 to 1 | Cc1ncsc1-c1ccc(CNC(=O)[C@@H]2C[C@@H](O)CN2C(=O)[C@@H](NC(=O)COCCCS(=O)(=O)CCNC(=O)C[C@@H]2N=C(c3ccc(Cl)cc3)c3c(sc(C)c3C)-n3c(C)nnc32)C(C)(C)C)cc1 [Example 101] | 88.3
> 1 | Cc1sc2c(c1C)C(c1ccc(Cl)cc1)=N[C@@H](CC(=O)N[C@H]1C[C@@H](Oc3cccc(-c4cnn([C@@H](C(=O)N5C[C@H](O)C[C@H]5C(=O)N[C@@H](C)c5ccc(-n6ccnc6C)cc5)C(C)C)c4)c3)C1)c1nnc(C)n1-2 [Example 298] | 25.5
> 1 | CNC[C@@H](NC(=O)[C@@H]1C[C@@H](O)CN1C(=O)[C@@H](NC(=O)COCCCOCCNC(=O)C[C@@H]1N=C(c2ccc(Cl)cc2)c2c(sc(C)c2C)-n2c(C)nnc21)C(C)(C)C)c1ccc(-c2scnc2C)cc1 [Example 111] | 47.3
< 0.01 | Cc1ncsc1-c1ccc([C@H](C)NC(=O)[C@@H]2C[C@@H](O)CN2C(=O)[C@@H](NC(=O)CCc2cc(F)cc(OCCNC(=O)C[C@@H]3N=C(c4ccc(Cl)cc4)c4c(sc(C)c4C)-n4c(C)nnc43)c2)C(C)(C)C)cc1 [Example 150, (2S,4R)-1-[(2S)-2-{3-[3-(2-{2-[(9S)-7-(4-chlorophenyl)-4,5,13-trimethyl-3-thia-1,8,11,12-tetraazatricyclo[8.3.0.0^2,^6]trideca-2(6),4,7,10,12-pentaen-9-yl]acetamido}ethoxy)-5-fluorophenyl]propanamido}-3,3-dimethylbutanoyl]-4-hydroxy-N-[(1S)-1-[4-(4-methyl-1,3-thiazol-5-yl)phenyl]ethyl]pyrrolidine-2-carboxamide] | 93.9
0.01 to 0.1 | Cc1cc(C(C(=O)N2C[C@H](O)C[C@H]2C(=O)NCc2ccc(Cl)cc2OCCOCCOCCOCCNC(=O)C[C@@H]2N=C(c3ccc(Cl)cc3)c3c(sc(C)c3C)-n3c(C)nnc32)C(C)C)on1 (some centres unmarked) [Example 361] | 100
> 1 | Cc1ncsc1-c1ccc(CNC(=O)[C@@H]2C[C@@H](O)CN2C(=O)[C@@H](NC(=O)COCCCOCCNC(=O)C[C@H]2N=C(c3ccc(Cl)cc3)c3c(sc(C)c3C)-n3c(C)nnc32)C(C)(C)C)cc1 [Example 106] | < 5
< 0.01 | Cc1ncsc1-c1ccc([C@H](C)NC(=O)[C@@H]2C[C@@H](O)CN2C(=O)[C@@H](NC(=O)COc2ccc(N3CCN(C(=O)C[C@@H]4N=C(c5ccc(Cl)cc5)c5c(sc(C)c5C)-n5c(C)nnc54)CC3)nc2)C(C)(C)C)cc1 [Example 288] | 98
0.01 to 0.1 | Cc1ncsc1-c1ccc(CNC(=O)[C@@H]2C[C@@H](O)CN2C(=O)[C@@H](NC(=O)COCCOCCOCCCCOc2ccc3c(c2)c2c(C(N)=O)cc(-c4c(C)noc4C)cc2n3Cc2ccccc2)C(C)(C)C)cc1 [Example 152] | 95
0.01 to 0.1 | Cc1ncsc1-c1ccc(CNC(=O)[C@@H]2C[C@@H](O)CN2C(=O)[C@@H](NC(=O)COCCCOCCCOc2ccc(NC(=O)C[C@@H]3N=C(c4ccc(Cl)cc4)c4c(sc(C)c4C)-n4c(C)nnc43)c(F)c2)C(C)(C)C)cc1 [Example 20] | 94
< 0.01 | Cc1ncsc1-c1ccc(CNC(=O)C2C[C@@H](O)CN2C(=O)[C@@H](NC(=O)COCCCOCCOc2cccc(NC(=O)C[C@@H]3N=C(c4ccc(Cl)cc4)c4c(sc(C)c4C)-n4c(C)nnc43)c2)C(C)(C)C)cc1 (some centres unmarked) [Example 94] | 98.5
> 1 | Cc1ncsc1-c1ccc(CNC(=O)[C@@H]2C[C@@H](O)CN2C(=O)[C@@H](C(C)C)n2cc(-c3ccnc(O[C@H](C)CNC(=O)C[C@@H]4N=C(c5ccc(Cl)cc5)c5c(sc(C)c5C)-n5c(C)nnc54)c3)cn2)cc1 [Example 167] | 27.6
0.01 to 0.1 | Cc1ncsc1-c1ccc(CNC(=O)[C@@H]2C[C@@H](O)CN2C(=O)[C@@H](NC(=O)Cc2ccc(OCCNC(=O)C[C@@H]3N=C(c4ccc(Cl)cc4)c4c(sc(C)c4C)-n4c(C)nnc43)cc2)C(C)(C)C)cc1 [Example 80, (2S,4R)-1-[(2S)-2-{2-[4-(2-{2-[(9S)-7-(4-chlorophenyl)-4,5,13-trimethyl-3-thia-1,8,11,12-tetraazatricyclo[8.3.0.0^2,^6]trideca-2(6),4,7,10,12-pentaen-9-yl]acetamido}ethoxy)phenyl]acetamido}-3,3-dimethylbutanoyl]-4-hydroxy-N-{[4-(4-methyl-1,3-thiazol-5-yl)phenyl]methyl}pyrrolidine-2-carboxamide] | 97.5
0.1 to 1 | Cc1ncsc1-c1ccc(CNC(=O)[C@@H]2C[C@@H](O)CN2C(=O)[C@H](C(C)C)N2Cc3ccccc3C2=O)c(OCCOCCOCCOCCOCCOCCNC(=O)C[C@@H]2N=C(c3ccc(Cl)cc3)c3c(sc(C)c3C)-n3c(C)nnc32)c1 [Example 3] | 100
0.01 to 0.1 | Cc1ncsc1-c1ccc([C@H](C)NC(=O)[C@@H]2C[C@@H](O)CN2C(=O)[C@@H](NC(=O)[C@H]2CC[C@@H](COCCCNC(=O)C[C@@H]3N=C(c4ccc(Cl)cc4)c4c(sc(C)c4C)-n4c(C)nnc43)O2)C(C)(C)C)cc1 [Example 187] | 98.5
< 0.01 | Cc1ncsc1-c1ccc([C@H](C)NC(=O)[C@@H]2C[C@@H](O)CN2C(=O)[C@@H](NC(=O)COCCOCCCNC(=O)C[C@@H]2N=C(c3ccc(Cl)cc3)c3c(sc(C)c3C)-n3c(C)nnc32)C(C)(C)C)cc1 [Example 147] | 98.5

SMILES | DC50 [µM] | Emax [%]
Cc1ncsc1-c1ccc([C@H](C)NC(=O)[C@@H]2C[C@@H](O)CN2C(=O)[C@@H](NC(=O)Cc2ccc(O[C@H]3C[C@H](NC(=O)C[C@@H]4N=C(c5ccc(Cl)cc5)c5c(sc(C)c5C)-n5c(C)nnc54)C3)cc2F)C(C)(C)C)cc1 [Example 249, (2S,4R)-1-[(2S)-2-(2-{2-fluoro-4-[(1r,3r)-3-{2-[(9S)-7-(4-chlorophenyl)-4,5,13-trimethyl-3-thia-1,8,11,12-tetraazatricyclo[8.3.0.0^2,^6]trideca-2(6),4,7,10,12-pentaen-9-yl]acetamido}cyclobutoxy]phenyl}acetamido)-3,3-dimethylbutanoyl]-4-hydroxy-N-[(1S)-1-[4-(4-methyl-1,3-thiazol-5-yl)phenyl]ethyl]pyrrolidine-2-carboxamide] | < 0.01 | 98.5
Cc1ncsc1-c1ccc([C@H](C)NC(=O)[C@@H]2C[C@@H](O)CN2C(=O)[C@@H](NC(=O)Cc2ccc(O[C@H]3C[C@H](NC(=O)C[C@@H]4N=C(c5ccc(Cl)cc5)c5c(sc(C)c5C)-n5c(C)nnc54)C3)cc2)C(C)(C)C)cc1 [Example 193, (2S,4R)-1-[(2S)-3,3-dimethyl-2-(2-{4-[(1,3trans)-3-{2-[(9S)-7-(4-chlorophenyl)-4,5,13-trimethyl-3-thia-1,8,11,12-tetraazatricyclo[8.3.0.0^2,^6]trideca-2(6),4,7,10,12-pentaen-9-yl]acetamido}cyclobutoxy]phenyl}acetamido)butanoyl]-4-hydroxy-N-[(1S)-1-[4-(4-methyl-1,3-thiazol-5-yl)phenyl]ethyl]pyrrolidine-2-carboxamide] | < 0.01 | 100

— patent US11554171B2, “Compounds and methods for the targeted degradation of bromodomain-containing proteins” (Arvinas Operations, Inc., priority 2015, dated 2023)
